These results are taken from US20170189485A1, “MODULATION OF ESTROGEN RECEPTOR-RELATED RECEPTOR GAMMA (ERR GAMMA) AND USES THEREFOR” (Salk Institute for Biological Studies, priority 2011, published 2017).

Entries after “also recorded” stand apart in the source; their conditions may differ.

Test [1] concerns the target T1, ERRγ (Homo sapiens, UniProt P62508).
T1 sequence (P62508 1-458): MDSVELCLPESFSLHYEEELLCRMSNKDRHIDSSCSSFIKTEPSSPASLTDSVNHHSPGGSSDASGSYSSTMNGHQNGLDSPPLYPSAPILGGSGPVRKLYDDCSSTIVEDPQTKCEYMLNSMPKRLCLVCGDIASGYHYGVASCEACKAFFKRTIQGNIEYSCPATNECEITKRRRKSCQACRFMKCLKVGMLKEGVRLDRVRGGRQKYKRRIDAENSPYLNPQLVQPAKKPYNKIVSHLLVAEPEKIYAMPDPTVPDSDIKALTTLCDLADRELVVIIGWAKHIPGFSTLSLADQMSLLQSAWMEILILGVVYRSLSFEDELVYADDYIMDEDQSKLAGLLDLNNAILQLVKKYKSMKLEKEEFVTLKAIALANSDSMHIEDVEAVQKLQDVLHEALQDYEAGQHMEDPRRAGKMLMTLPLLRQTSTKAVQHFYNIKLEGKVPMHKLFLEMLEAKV
As to conditions: cited from earlier work.

Test [2] deals with T2, ERRβ (Homo sapiens, UniProt O95718).
T2 sequence (O95718 1-433): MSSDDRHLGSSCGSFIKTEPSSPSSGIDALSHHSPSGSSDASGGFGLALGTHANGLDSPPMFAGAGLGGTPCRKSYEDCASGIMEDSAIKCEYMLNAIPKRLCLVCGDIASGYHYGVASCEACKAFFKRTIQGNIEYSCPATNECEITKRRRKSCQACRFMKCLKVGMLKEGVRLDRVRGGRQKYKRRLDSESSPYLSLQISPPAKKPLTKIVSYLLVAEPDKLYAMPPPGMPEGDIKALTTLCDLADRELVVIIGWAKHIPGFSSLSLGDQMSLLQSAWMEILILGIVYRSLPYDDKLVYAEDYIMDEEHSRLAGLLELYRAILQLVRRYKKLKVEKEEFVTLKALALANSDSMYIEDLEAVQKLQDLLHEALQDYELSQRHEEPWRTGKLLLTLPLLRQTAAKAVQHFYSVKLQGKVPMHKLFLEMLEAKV
To be noted: cited from earlier work.

Test [3] deals with type II muscle. Nature of the test: AICAR treatment of mice, SDH staining of muscle cryo-sections. It is filed as in vivo. As to conditions: AICAR 500 mg/kg/day for 4 weeks, intra-peritoneally, male C57Bl/6J mice. How it is done: Drug treatment. Male C57Bl/6J mice (8 weeks old) were intra-peritoneally injected with vehicle or AICAR (500 mg/kg/day), as previously described (Narkar et al., 2008).
Succinate Dehydrogenase (SDH) Staining. SDH staining was performed on […] cryo-sections of gastrocnemius. Briefly, WT and transgenic sections were incubated at 37° C. for 10 min in substrate buffer [0.2M Phosphate buffer containing sodium succinate (250 mg/10 ml) and NBT (10 mg/10 ml)]. Following incubation, sections were washed three times with water following by two washes each with increasing and decreasing concentrations of acetone (30%, 60%, 90%). Finally, the sections were washed three times with water and mounted in an aqueous mounting media.

The subject of test [4] is AMPK. To be noted: dose 500 mg/kg/day; cited from earlier work.
For test [5] the following is noted: dose 500 mg/kg/day; cited from earlier work.

Turning to `CCN(CC)c1ccc(C=NNC(=O)c2ccc(O)cc2)cc1` (stereo in doubt) [GSK9089, N-[(E)-[4-(diethylamino)phenyl]methylideneamino]-4-hydroxybenzamide], the “agonist of ERRγ” value in test [1] was “agonists”. Moreover, the “agonist of ERRβ” value in test [2] is given as “agonists”.

Consider `NC(=O)c1ncn([C@@H]2O[C@H](CO)[C@@H](O)[C@H]2O)c1N` [AICAR], for which, in test [3], the “aerobic transformation of skeletal muscle (SDH staining)” value is “able to direct aspects of skeletal muscle transformation in a fashion similar to ERRγ; also recorded: triggers aerobic transformation of type II muscle”. The “stimulation of AMPK in anaerobic muscle” value in test [4] is “stimulate AMPK in anaerobic muscle”. For the same compound, the aerobic performance entry in test [5] is recorded as “improve aerobic performance”.

`Nc1ccc(C(=O)N/N=C/c2ccc(/N=N/c3ccccc3)cc2)cn1` [E6]: the “selectivity for ERRγ over ERRα and β” value in test [1] (screening assay of Kim et al. 2009) is “selective for ERRγ but not ERRα and β”.

Consider `CC(C)c1ccc(/C=N/NC(=O)c2ccc(O)cc2)cc1` [GSK4716], for which, in test [2], the “agonist of ERRβ” value is given as “agonists”.
